Legend:
[1] = system: outpatients with moderate to severe unipolar depression; assay: Prospective GENDEP cohort: association of rs7905446 genotype with antidepressant remission; type: in vivo, human; settings: TT vs TG/GG, logistic regression adjusted for sex, age and center ID, week 12, remission MADRS≤10
Procedure: Statistical analysis. The association between drug response and allelic SNPs identified from pooled-sequencing were performed using logistic regression (PLINK version 1.9).. The association between drug response and […] genotype was performed using logistic regression within Caucasian population. χ^2 tests were used to compare the sex distribution between responder and non-responder. Group differences were analyzed using Student's T-test. […] Replication study II in the Genome-based Therapeutic Drugs for Depression ([…]) study. […] is a multicenter part-randomized open-label pharmacogenetic study of 811 outpatients with moderate to severe unipolar depression diagnosed according to DSM-IV and established in the semi-structured SCAN interview. Patients were aged 19 to 72 years with European ancestry for at least two generations. Patients with personal and family history of schizophrenia or bipolar affective disorder and current dependence on alcohol or drugs were excluded from the study. […] Patients with contraindications for one of the drugs were allocated nonrandomly to the other antidepressant. […] The study was approved by ethics boards of all the participating centers. All participants provided written informed consent.

[2] = biological target: norepinephrine transporter (Homo sapiens, UniProt P23975); settings: cited from earlier work
Sequence of norepinephrine transporter (P23975 whole entry, species assumed): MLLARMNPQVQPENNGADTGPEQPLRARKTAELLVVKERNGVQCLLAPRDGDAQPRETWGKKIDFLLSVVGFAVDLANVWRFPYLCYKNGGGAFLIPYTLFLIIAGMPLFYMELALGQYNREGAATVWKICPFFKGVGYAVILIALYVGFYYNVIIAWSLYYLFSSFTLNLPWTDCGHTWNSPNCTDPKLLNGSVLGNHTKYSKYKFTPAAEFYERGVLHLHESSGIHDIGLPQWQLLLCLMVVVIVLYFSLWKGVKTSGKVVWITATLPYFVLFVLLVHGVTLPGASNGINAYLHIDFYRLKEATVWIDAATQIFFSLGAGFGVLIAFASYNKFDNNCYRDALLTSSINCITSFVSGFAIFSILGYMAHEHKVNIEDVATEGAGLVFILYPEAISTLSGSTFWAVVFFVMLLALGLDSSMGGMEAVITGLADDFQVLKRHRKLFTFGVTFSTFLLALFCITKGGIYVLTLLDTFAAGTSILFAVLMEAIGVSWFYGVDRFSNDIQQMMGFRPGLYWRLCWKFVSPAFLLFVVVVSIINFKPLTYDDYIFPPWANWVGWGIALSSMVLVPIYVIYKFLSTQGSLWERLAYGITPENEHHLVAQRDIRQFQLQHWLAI

[3] = system: subjects with BD, MDD or SABP diagnosis; assay: Retrospective cohort: association of rs7905446 genotype with self-reported SSRI response (logistic regression); type: in vivo, human; settings: TT vs TG/GG, TT associated with poor response, logistic regression adjusted for sex and age, Caucasian subjects
Procedure: SNP genotyping. Genotyping of rs7905446 (T/G) was performed using TaqMan SNP genotyping assay on 7900HT Fast Real-Time PCR System (Thermo Fisher Scientific, Waltham, Mass., USA) as previously described. The assay included negative controls and was run with the following condition: 95° C. for 10 min followed by 40 cycles of 92° C. for 15 s and 60° C. for 1 min. The genotyping success rate was >95%. Twenty percent of the samples were genotyped in duplicate, with 100% reproducibility.
Statistical analysis. The association between drug response and allelic SNPs identified from pooled-sequencing were performed using logistic regression (PLINK version 1.9).. The association between drug response and rs7905446 genotype was performed using logistic regression within Caucasian population. χ^2 tests were used to compare the sex distribution between responder and non-responder. Group differences were analyzed using Student's T-test. P value<0.05 were considered statistically significant.
Subjects. All subjects (n=497) were ascertained as part of several cohorts collected for genetic studies of BD. Subjects were identified through VA and UCSD clinics, as well as, advertisement and patient support groups. […]
Assessment of SSRI response. […] Subject's response to SSRI's over their lifetime was assessed based on self-reporting. […]

[4] = biological target: HTR7 (Mus musculus, UniProt P32304); settings: in vivo; cited from earlier work
Sequence of HTR7 (Mus musculus, UniProt P32304) (P32304 whole entry): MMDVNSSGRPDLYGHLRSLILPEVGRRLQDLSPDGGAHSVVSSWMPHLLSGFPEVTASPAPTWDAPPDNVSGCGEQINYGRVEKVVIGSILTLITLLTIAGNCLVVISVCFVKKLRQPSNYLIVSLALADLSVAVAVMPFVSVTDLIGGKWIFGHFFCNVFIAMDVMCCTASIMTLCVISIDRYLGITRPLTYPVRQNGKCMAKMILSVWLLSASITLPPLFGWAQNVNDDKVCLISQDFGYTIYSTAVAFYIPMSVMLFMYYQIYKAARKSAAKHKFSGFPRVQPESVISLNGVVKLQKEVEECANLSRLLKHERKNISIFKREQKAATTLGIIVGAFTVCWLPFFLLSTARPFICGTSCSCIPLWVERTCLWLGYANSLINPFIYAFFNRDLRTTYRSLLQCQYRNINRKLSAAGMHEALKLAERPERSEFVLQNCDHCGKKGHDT

[5] = biological target: HTR7 (Homo sapiens, UniProt P34969); settings: cited from earlier work
Sequence of HTR7 (Homo sapiens, UniProt P34969) (P34969 whole entry): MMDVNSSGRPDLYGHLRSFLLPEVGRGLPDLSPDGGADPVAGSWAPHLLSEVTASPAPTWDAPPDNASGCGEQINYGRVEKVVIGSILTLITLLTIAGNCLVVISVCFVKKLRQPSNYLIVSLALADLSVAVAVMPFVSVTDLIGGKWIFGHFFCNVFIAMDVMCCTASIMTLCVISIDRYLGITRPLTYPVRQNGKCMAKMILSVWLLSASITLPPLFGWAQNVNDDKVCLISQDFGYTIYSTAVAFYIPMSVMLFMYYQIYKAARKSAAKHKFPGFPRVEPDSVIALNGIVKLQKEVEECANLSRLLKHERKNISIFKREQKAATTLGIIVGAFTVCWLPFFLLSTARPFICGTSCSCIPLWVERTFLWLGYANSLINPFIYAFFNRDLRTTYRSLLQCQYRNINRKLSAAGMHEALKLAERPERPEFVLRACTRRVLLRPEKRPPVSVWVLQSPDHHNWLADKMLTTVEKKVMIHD

[6] = system: HTR7; settings: chronic treatment; cited from earlier work

Row | SMILES | affinity to HTR7 [5] | also measured
1 | CN(C)CCC[C@@]1(c2ccc(F)cc2)OCc2cc(C#N)ccc21 [Escitalopram] | – | OR, Rs7905446, remitter vs. non-remitter [1]: 1.669; effect on norepinephrine transporter [2]: no direct effect
2 | CNCCC=C1c2ccccc2CCc2ccccc21 [Nortriptyline, Nortyptiline] | – | OR, Rs7905446, remitter vs. non-remitter [1]: 0.694
3 | Fc1ccc([C@@H]2CCNC[C@H]2COc2ccc3c(c2)OCO3)cc1 [Paroxetine] | – | OR, Rs7905446, responder vs. non-responder [3]: 5.250
4 | CC1CCN(CC[C@H]2CCCN2S(=O)(=O)c2cccc(O)c2)CC1 [SB-269970] | – | effects of SSRI and NARI on blockade of HTR7 [4]: potentiate
5 | CCN1CCCC1CNC(=O)c1cc(S(=O)(=O)CC)c(N)cc1OC (stereo not drawn) [amisulpride, Amisulpride] | high affinity | –
6 | CN(C)CCC=C1c2ccccc2CCc2ccccc21 [amitriptyline, Amitriptyline] | high affinity | –
7 | Clc1ccc2c(c1)C(N1CCNCC1)=Nc1ccccc1O2 [amoxapine, Amoxapine] | high affinity | –
8 | CNCCC(Oc1ccc(C(F)(F)F)cc1)c1ccccc1 (stereo not drawn) [fluoxetine, Fluoxetine] | – | HTR7 expression [6]: downregulates
9 | O=C1[C@@H]2[C@H]3CC[C@H](C3)[C@@H]2C(=O)N1C[C@@H]1CCCC[C@H]1CN1CCN(c2nsc3ccccc23)CC1 [lurasidone, Lurasidone] | high affinity | –
10 | O=C1[C@H]2CCCC[C@H]2C(=O)N1CCCCN1CCN(c2nsc3ccccc23)CC1 [perospirone, Perospirone] | high affinity | –
11 | Cc1nc2n(c(=O)c1CCN1CCC(c3noc4cc(F)ccc34)CC1)CCCC2 [risperidone, Risperidone] | high affinity | –

— patent publication US11512353B2, “Method to predict response to neuropsychiatric drugs using variation in the serotonin 7 receptor (HTR7) gene” (The Regents of the University of California, priority 2018, dated 2022)
